Results: ChEMBL document CHEMBL1140354, “Novel peptide derivatives of bleomycin A5: synthesis, antitumor activity and interaction with DNA” (Bioorg Med Chem Lett, 2005)

Key:
MDA-MB-435 = assay: In vitro antitumor activity against human MDA-MB-435 tumor cell line; type: functional, cell-based
BGC-823 = assay: In vitro antitumor activity against humanBGC-823 tumor cell line; type: functional, cell-based; details: Homo sapiens
[1] = In vitro antitumor activity against human PC-3MIE8 tumor cell line; type: functional
HL-60 = assay: In vitro antitumor activity against humanHL-60 tumor cell line; type: functional, cell-based; details: Homo sapiens
Calf thymus DNA = assay: Apparent binding constant to calf thymus DNA (CT-DNA); type: nucleic-acid assay; details: Bos taurus
Nucleic Acid = assay: Thermal denaturation alteration for calf thymus DNA (CT-DNA) binding to the compound was determined; type: functional; details: Bos taurus

Compound | IC50 (MDA-MB-435) [nM] | IC50 (BGC-823) [nM] | IC50 [1] [nM] | IC50 (HL-60) [nM] | Kb (Calf thymus DNA) | ΔTm (Nucleic Acid) [°C]
Cc1c(N)nc([C@H](CC(N)=O)NC[C@H](N)C(N)=O)nc1C(=O)N[C@H](C(=O)N[C@H](C)[C@@H](O)[C@H](C)C(=O)N[C@H](C(=O)NCCc1nc(-c2nc(C(=O)NCCCNCCCCNC(=O)[C@@H](N)C(C)C)cs2)cs1)[C@@H](C)O)[C@@H](O[C@@H]1O[C@@H](CO)[C@@H](O)[C@H](O)[C@@H]1O[C@H]1O[C@H](CO)[C@@H](O)[C@H](OC(N)=O)[C@@H]1O)c1c[nH]cn1 | 130 | 1390 | 1830 | 660 | 325000 | 1.9
Cc1c(N)nc([C@H](CC(N)=O)NC[C@H](N)C(N)=O)nc1C(=O)N[C@H](C(=O)N[C@H](C)[C@@H](O)[C@H](C)C(=O)N[C@H](C(=O)NCCc1nc(-c2nc(C(=O)NCCCNCCCCNC(=O)[C@H](CCCCN)NC(=O)[C@@H](N)C(C)C)cs2)cs1)[C@@H](C)O)[C@@H](O[C@@H]1O[C@@H](CO)[C@@H](O)[C@H](O)[C@@H]1O[C@H]1O[C@H](CO)[C@@H](O)[C@H](OC(N)=O)[C@@H]1O)c1c[nH]cn1 | 220 | 1010 | 3320 | 980 | 463000 | 7
Cc1c(N)nc([C@H](CC(N)=O)NC[C@H](N)C(N)=O)nc1C(=O)N[C@H](C(=O)N[C@H](C)[C@@H](O)[C@H](C)C(=O)N[C@H](C(=O)NCCc1nc(-c2nc(C(=O)NCCCNCCCCNC(=O)[C@H](N)C(C)C)cs2)cs1)[C@@H](C)O)[C@@H](O[C@@H]1O[C@@H](CO)[C@@H](O)[C@H](O)[C@@H]1O[C@H]1O[C@H](CO)[C@@H](O)[C@H](OC(N)=O)[C@@H]1O)c1c[nH]cn1 | 130 | 800 | 800 | 310 | 249000 | 1.1
Cc1c(N)nc([C@H](CC(N)=O)NC[C@H](N)C(N)=O)nc1C(=O)N[C@H](C(=O)N[C@H](C)[C@@H](O)[C@H](C)C(=O)N[C@H](C(=O)NCCc1nc(-c2nc(C(=O)NCCCNCCCCNC(=O)[C@H](CC(C)C)NC(=O)[C@@H](N)C(C)C)cs2)cs1)[C@@H](C)O)[C@@H](O[C@@H]1O[C@@H](CO)[C@@H](O)[C@@H](O)[C@@H]1O[C@H]1O[C@H](CO)[C@@H](O)[C@H](OC(N)=O)[C@@H]1O)c1c[nH]cn1 | 320 | 870 | 1320 | 630 | 423000 | 1.8
Cc1c(N)nc([C@H](CC(N)=O)NC[C@H](N)C(N)=O)nc1C(=O)N[C@H](C(=O)N[C@H](C)[C@@H](O)[C@H](C)C(=O)N[C@H](C(=O)NCCc1nc(-c2nc(C(=O)NCCCNCCCCNC(=O)[C@H](CCCCN)NC(=O)[C@@H](CC(C)C)NC(=O)[C@@H](N)C(C)C)cs2)cs1)[C@@H](C)O)[C@@H](O[C@@H]1O[C@@H](CO)[C@@H](O)[C@H](O)[C@@H]1O[C@H]1O[C@H](CO)[C@@H](O)[C@H](OC(N)=O)[C@@H]1O)c1c[nH]cn1 | 70 | 600 | 1140 | 70 | 496000 | 4.7
Cc1c(N)nc([C@H](CC(N)=O)NC[C@H](N)C(N)=O)nc1C(=O)N[C@H](C(=O)N[C@H](C)[C@@H](O)[C@H](C)C(=O)N[C@H](C(=O)NCCc1nc(-c2nc(C(=O)NCCCNCCCCNC(=O)[C@H](CC(C)C)NC(=O)[C@H](N)C(C)C)cs2)cs1)[C@@H](C)O)[C@@H](O[C@@H]1O[C@@H](CO)[C@@H](O)[C@H](O)[C@@H]1O[C@H]1O[C@H](CO)[C@@H](O)[C@H](OC(N)=O)[C@@H]1O)c1c[nH]cn1 | 90 | 930 | 1180 | 270 | 260000 | 0.5
Cc1c(N)nc([C@H](CC(N)=O)NC[C@H](N)C(N)=O)nc1C(=O)N[C@H](C(=O)N[C@H](C)[C@@H](O)[C@H](C)C(=O)N[C@H](C(=O)NCCc1nc(-c2nc(C(=O)NCCCNCCCCNC(=O)[C@H](N)CC(C)C)cs2)cs1)[C@@H](C)O)[C@@H](O[C@@H]1O[C@@H](CO)[C@@H](O)[C@H](O)[C@@H]1O[C@H]1O[C@H](CO)[C@@H](O)[C@H](OC(N)=O)[C@@H]1O)c1c[nH]cn1 | 170 | 730 | 1270 | 370 | 283000 | 1.5
Cc1c(N)nc([C@H](CC(N)=O)NC[C@H](N)C(N)=O)nc1C(=O)N[C@H](C(=O)N[C@H](C)[C@@H](O)[C@H](C)C(=O)N[C@H](C(=O)NCCc1nc(-c2nc(C(=O)NCCCNCCCCN)cs2)cs1)[C@@H](C)O)[C@@H](O[C@@H]1O[C@@H](CO)[C@@H](O)[C@@H](O)[C@@H]1O[C@H]1O[C@H](CO)[C@@H](O)[C@H](OC(N)=O)[C@@H]1O)c1c[nH]cn1 | 1640 | 1250 | 1480 | 250 | 457000 | 2.9
Cc1c(N)nc([C@H](CC(N)=O)NC[C@H](N)C(N)=O)nc1C(=O)N[C@H](C(=O)N[C@H](C)[C@@H](O)[C@H](C)C(=O)N[C@H](C(=O)NCCc1nc(-c2nc(C(=O)NCCCNCCCCNC(=O)[C@H](N)CCCCN)cs2)cs1)[C@@H](C)O)[C@@H](O[C@@H]1O[C@@H](CO)[C@@H](O)[C@H](O)[C@@H]1O[C@H]1O[C@H](CO)[C@@H](O)[C@H](OC(N)=O)[C@@H]1O)c1c[nH]cn1 | 100 | 920 | 1080 | 510 | 559000 | 8.4
Cc1c(N)nc([C@H](CC(N)=O)NC[C@H](N)C(N)=O)nc1C(=O)N[C@H](C(=O)N[C@H](C)[C@@H](O)[C@H](C)C(=O)N[C@H](C(=O)NCCc1nc(-c2nc(C(=O)NCCCNCCCCNC(=O)[C@H](CCCCN)NC(=O)[C@H](N)C(C)C)cs2)cs1)[C@@H](C)O)[C@@H](O[C@@H]1O[C@@H](CO)[C@@H](O)[C@H](O)[C@@H]1O[C@H]1O[C@H](CO)[C@@H](O)[C@H](OC(N)=O)[C@@H]1O)c1c[nH]cn1 | 100 | 1170 | 1910 | 740 | 408000 | 5.9
